Article PMC11607671, “Antiviral activity of cathelicidins against porcine epidemic diarrhea virus (PEDV): Mechanisms, and efficacy” (Virus Research, 2024)

Key:
[1] = tested on: PEDV; assay: Transmission electron microscopy of peptide-treated virus; design: species or system Porcine epidemic diarrhea virus; settings: PEDV treated with 10 µM peptide, negative stain, Fig. 9
Experimental: PEDV was treated with CATH-B1, LL-37, PMAP-23, and PMAP-36 for one minute at 37 °C. Subsequently, 10 µL of the sample was placed onto a freshly carbon-coated copper grid. The grids were washed 3 times with PBS and then fixed with 1% glutaraldehyde (Sigma-Aldrich, St. Louis, MO, USA) in PBS for 10 min. Following this fixation, the grids were rinsed 2 times with PBS and 4 times with MilliQ water. They were stained for 5 min in Uranyl Acetate (pH 7) then briefly washed with methylcellulose/uranyl acetate (pH 4) and incubated for 5 min on ice. Finally, the grids were looped out of the solution and air-dried. The samples were subsequently examined in a JEM1010 (JEOL) equipped with a Veleta 2k × 2k CCD camera (EMSIS, Munster, Germany).
Fig. 9 The effect of AMPs on the morphology of the virus. PEDV (MOI=0.3), which was pre-incubated with peptides. TEM images were taken of PEDV alone (A–D), PEDV treated with 10 µM LL-37 (E-H), PEDV treated with 10 µM CATH-B1 (I-L), PEDV treated with 10 µM PMAP-23 (M, N), and PEDV treated with 10 µM PMAP-36 (O, P). […] Micrographs were captured with a pixel size of 0,5 nm and analyzed visually using ImageJ. The micrographs are representative of observations from three independent experiments. Scale bars represent 100 nm.

[2] = tested on: PEDV-GFP; assay: Post-incubation (post-treatment) antiviral assay; type: cell-based, Porcine epidemic diarrhea virus; settings: Vero cells exposed to PEDV-GFP 2 h, washed, then AMPs for 3 h; FC; Fig. 7B, C
Experimental: (§1) In post-incubation assays (Fig. 7A), cells were initially exposed to the virus for 2 h, washed 2times with PBS and subsequently treated with AMPs for 3 h Both for pre- and post-infection assays, after the respective incubation periods, the cells were assessed using fluorescence microscopy and quantified using FC as described above.
Fig. 7 Effects of AMPs in post-incubation assay. A) Design and setup of post-incubation assay. B) The percentage of GFP-positive cells was quantified using FC during post-incubation. C) The FC histogram illustrates the fluorescence intensity of GFP after treatment with CATH-B1 and LL-37. […] The reported values represent the mean ± SD derived from three independent experiments performed in triplicate.

[3] = tested on: PEDV-GFP; assay: Pre-incubation (pre-treatment) antiviral assay; type: cell-based, Porcine epidemic diarrhea virus; settings: Vero cells treated 3 h with AMPs (0-10 µM), washed, then infected with PEDV-GFP MOI 0.3 for 2 h; FC; Fig. 6B, C
Experimental: The effect of AMPs on viral infectivity was also determined when they were added to Vero-cells before (pre-treatment) or after (post-treatment) infection. In the pre-treatment assay (Fig. 6A), Vero cells were treated with different concentrations of CATH-B1 and LL-37 peptides (ranging from 0 to 10 µM) for various durations (1, 2, 3, 4, and 24 h) at 37 °C. Subsequently, the cells were washed 2 times with PBS and infected with PEDV-GFP at an MOI of 0.3 for 2 h
as §1
Fig. 6 Effects of AMPs in pre-incubation assay. A) Experimental set-up of pre-incubation experiment. B) FC was employed to quantify the percentage of GFP-positive cells during pre-incubation. […] The reported values represent the mean ± SD derived from three independent experiments performed in triplicate. * p < 0.05; ** p < 0.01.

[4] = tested on: PEDV; assay: Peptide-virus interaction assay with Capto Core 700 beads; type: cell-based, Porcine epidemic diarrhea virus; settings: Fig. 8
Experimental: In order to determine if CATH-B1 and LL-37 physically interact with PEDV, Capto Core 700 beads (GE Healthcare Life Sciences, Chicago, IL, USA) were used to selectively eliminate unbound AMPs. PEDV were pre-incubated with or without CATH-B1/LL-37 in Opti-MEM medium, and Capto Core 700 beads were added, followed by a 1 h incubation at 4 °C while slowly rotating. After centrifugation, supernatants were collected and applied to the cells. To make sure the AMP was removed effectively, we tested samples with peptides but no virus using the same process. The collected supernatants were used to inoculate cells, and the number of infected cells was determined using the described method.
Fig. 8 Interactions between CATH-B1 and LL-37 with PEDV. CATH-B1/LL-37 were pre-incubated with the virus, and subsequently, the peptide and virus were separated using Capto Core beads. The supernatant containing the separated virus was then employed to infect Vero cells. […] The data is presented as the mean ± SEM of three independent experiments in duplicate, each with triplicate samples. **** p < 0.0001.

[5] = tested on: Vero cells; assay: LDH release cytotoxicity assay; type: cell-based, African green monkey; settings: 0-10 µM AMPs in DMEM, 3 h and 24 h, LDH release relative to 1% Triton X-100 lysis, three independent experiments, Fig. 1A+B
Experimental: Vero-mCeacam cells (Vero cells), derived from African green monkey kidney cells, were maintained in DMEM (Gibco, Thermo Fisher Scientific, Waltham, MA) supplemented with 10% FCS (Bodinco B.V., Alkmaar, The Netherlands) and 200 units/mL penicillin, and […] (P/S) (Gibco, Life Technologies Limited, Paisley, UK) at 37 °C and 5% CO2.
To assess the cytotoxicity of peptides, Vero cells were treated with AMPs (0 − 10 μM in DMEM) as outlined in paragraph 2.5. After 3 and 24 h of stimulation, the fraction of lactate dehydrogenase (LDH) released into the culture supernatant was measured using the Cyto Tox 96 nonradioactive cytotoxicity kit (Promega GmbH, Walldorf, Germany) according to the manufacturer's instructions, and expressed as a percentage of the maximum LDH release from cells, lysed by 1% Triton X-100 (Sigma-Aldrich, T8787, Darmstadt, Germany).
Fig. 1 The cytotoxicity of AMPs on Vero cells. Cells were incubated with 0 – 10 µM AMPs for either 3 h or 24 h A and B) LDH release assay, indicating cell membrane permeability after 3 and 24 h, respectively. C and D) WST assay, measuring cell metabolic activity after 3 and 24 h, respectively. ‘No peptide‘ represents cells incubated with only growth medium for the indicated times, serving as a control. P.C in the LDH assay are cells that have been lysed by the lysis buffer representing 100% release of intracellular LDH. […]

## LLGDFFRKSKEKIGKEFKRIVQRIKDFLRNLVPRTES [LL-37, human cathelicidin antimicrobial peptide, 37 residues]
[1]
  virus aggregation (TEM): in some cases, extensive virus aggregation
[1]; one minute at 37 °C
  effect on virus morphology / membrane (TEM): significant membrane disruption
[2]
  antiviral activity in post-incubation assay, in words: very moderate effect
[3]
  antiviral activity in pre-incubation assay, in words: potent inhibition of viral infection in Vero cells at all three concentrations
[4]; Capto Core 700 beads, Vero cells
  virus infectivity, peptide pre-incubated with beads before PEDV introduction: minimal effects on virus infectivity
[4]; no Capto Core 700 beads, Vero cells
  virus infectivity, peptide incubated with PEDV without beads: a decrease in virus infectivity
[4]; peptide + PEDV, then Capto Core 700 beads 1 h at 4 °C, supernatant applied to Vero cells
  antiviral activity when peptide is combined with virus and beads: lost its inhibitory effect
[5]
  cytotoxicity (LDH release): no toxic effects
